Laboratory results reported in ChEMBL document CHEMBL5512637, “Development of Membrane-Targeting Fluorescent 2-Phenyl-1H-phenanthro[9,10-d]imidazole-Antimicrobial Peptide Mimic Conjugates against Methicillin-Resistant Staphylococcus aureus” (J Med Chem, 2024).
Converted amounts (≈) assume the structure as drawn.

Experiments:
[1] = system: Staphylococcus aureus; test: Antibacterial activity against methicillin-resistant Staphylococcus aureus clinical isolate M-9 incubated for 16 to 18 hrs CLSI based by microbroth dilution assay; format: functional; settings: time 16-18 hrs
[2] = Selectivity index, ratio of HC50 for sheep erythrocytes to MIC for Staphylococcus aureus ATCC 29213; format: toxicity; settings: read-out: Selectivity Index
[3] = system: Staphylococcus aureus; test: Antibacterial activity against methicillin-resistant Staphylococcus aureus clinical isolate M-4 incubated for 16 to 18 hrs CLSI based by microbroth dilution assay; format: functional; settings: time 16-18 hrs
[4] = system: Staphylococcus aureus; test: Antibacterial activity against methicillin-resistant Staphylococcus aureus clinical isolate M-8 incubated for 16 to 18 hrs CLSI based by microbroth dilution assay; format: functional; settings: time 16-18 hrs
[5] = system: Escherichia coli; test: Antibacterial activity against Escherichia coli ATCC 25922 incubated for 16 to 18 hrs CLSI based by microbroth dilution assay; format: functional; settings: time 16-18 hrs
[6] = system: Staphylococcus aureus; test: Antibacterial activity against methicillin-resistant Staphylococcus aureus clinical isolate M-3 incubated for 16 to 18 hrs CLSI based by microbroth dilution assay; format: functional; settings: time 16-18 hrs
[7] = Hemolytic activity in sheep erythrocytes incubated for 1 hr by absorbance based assay; format: toxicity, cell-based, Ovis aries, Erythrocyte
[8] = system: Staphylococcus aureus; test: Antibacterial activity against Staphylococcus aureus ATCC 29213 incubated for 16 to 18 hrs CLSI based by microbroth dilution assay; format: functional; settings: time 16-18 hrs
[9] = system: Staphylococcus aureus; test: Antibacterial activity against methicillin-resistant Staphylococcus aureus clinical isolate M-2 incubated for 16 to 18 hrs CLSI based by microbroth dilution assay; format: functional; settings: time 16-18 hrs
[10] = system: Staphylococcus aureus; test: Antibacterial activity against methicillin-resistant Staphylococcus aureus clinical isolate M-5 incubated for 16 to 18 hrs CLSI based by microbroth dilution assay; format: functional; settings: time 16-18 hrs
[11] = system: Staphylococcus aureus; test: Antibacterial activity against methicillin-resistant Staphylococcus aureus clinical isolate M-1 incubated for 16 to 18 hrs CLSI based by microbroth dilution assay; format: functional; settings: time 16-18 hrs
[12] = system: Staphylococcus aureus; test: Antibacterial activity against methicillin-resistant Staphylococcus aureus clinical isolate M-6 incubated for 16 to 18 hrs CLSI based by microbroth dilution assay; format: functional; settings: time 16-18 hrs
[13] = system: Staphylococcus aureus; test: Antibacterial activity against methicillin-resistant Staphylococcus aureus clinical isolate M-7 incubated for 16 to 18 hrs CLSI based by microbroth dilution assay; format: functional; settings: time 16-18 hrs
[14] = system: Staphylococcus aureus; test: Antibacterial activity against methicillin-resistant Staphylococcus aureus clinical isolate M-10 incubated for 16 to 18 hrs CLSI based by microbroth dilution assay; format: functional; settings: time 16-18 hrs

Compound	MIC [1] [µg/mL]	selectivity ratio [2]	MIC [3] [µg/mL]	MIC [4] [µg/mL]	MIC [5] [µg/mL]	MIC [6] [µg/mL]	HC50 at 1 h [7] [µg/mL]	MIC [8] [µg/mL]	MIC [9] [µg/mL]	MIC [10] [µg/mL]	MIC [11] [µg/mL]	MIC [12] [µg/mL]	MIC [13] [µg/mL]	MIC [14] [µg/mL]
CCNC(=O)C[N+](C)(C)CCCCn1c(-c2ccc(N(C)C)cc2)nc2c3ccccc3c3ccccc3c21.[Br-]	16	> 40	16	32	> 128	16	> 640	16	16	16	16	16	16	16
C[C@@H](O)[C@H]1C(=O)N2C(C(=O)O)=C(S[C@@H]3CN[C@H](C(=O)N(C)C)C3)[C@H](C)[C@H]12 [MEROPENEM]					0.063 (≈ 0.164 µM)									
CC(C)N(C(=O)C[N+](C)(C)CCCCCn1c(-c2ccc(N(C)C)cc2)nc2c3ccccc3c3ccccc3c21)C(C)C.[Br-]	4	167	4	2	> 128	4	688	4	4	4	4	4	4	4
CCNC(=O)C[N+](C)(C)CCCn1c(-c2ccc(N(C)C)cc2)nc2c3ccccc3c3ccccc3c21.[Br-]	64	> 10	32	64	> 128	64	> 640	64	64	64	64	64	32	64
CC(C)CN(CC(C)C)C(=O)C[N+](C)(C)CCCn1c(-c2ccc(N(C)C)cc2)nc2c3ccccc3c3ccccc3c21.[Br-]	8	40	4	16	128	16	> 320	8	16	8	8	16	32	8
CCCNC(=O)C[N+](C)(C)CCCCn1c(-c2ccc(N(C)C)cc2)nc2c3ccccc3c3ccccc3c21.[Br-]	8	36.3	8	4	64	8	290	8	8	16	16	8	4	16
CCCN(CCC)C(=O)C[N+](C)(C)CCCn1c(-c2ccc(N(C)C)cc2)nc2c3ccccc3c3ccccc3c21.[Br-]	32	> 20	32	64	> 128	32	> 640	32	32	32	32	64	16	32
CCN(CC)C(=O)C[N+](C)(C)CCCCn1c(-c2ccc(N(C)C)cc2)nc2c3ccccc3c3ccccc3c21.[Br-]	16	> 640	16	32	> 128	16	16	16	16	16	16	16	16	16
CCCNC(=O)C[N+](C)(C)CCCCCn1c(-c2ccc(N(C)C)cc2)nc2c3ccccc3c3ccccc3c21.[Br-]	4	91.9	4	4	64	4	735	8	8	8	8	8	4	8
CCCCN(CCCC)C(=O)C[N+](C)(C)CCCn1c(-c2ccc(N(C)C)cc2)nc2c3ccccc3c3ccccc3c21.[Br-]	4	> 80	4	4	64	4	> 640	8	4	4	4	4	4	4
CN(C)c1ccc(-c2nc3c4ccccc4c4ccccc4c3n2CCCC[N+](C)(C)CC(=O)N2CCSCC2)cc1.[Br-]	16	> 40	16	16	> 128	16	> 640	16	16	16	16	16	16	16
CC(C)CN(CC(C)C)C(=O)C[N+](C)(C)CCCCn1c(-c2ccc(N(C)C)cc2)nc2c3ccccc3c3ccccc3c21.[Br-]	2	> 79.1	1	2	64	1	158	2	2	2	2	1	1	2
CN(C)c1ccc(-c2nc3c4ccccc4c4ccccc4c3n2CCCCC[N+](C)(C)CC(=O)N2CCSCC2)cc1.[Br-]	4	> 160	4	4	> 128	4	> 640	4	8	8	8	4	4	8
CCCCN(CCCC)C(=O)C[N+](C)(C)CCCCCn1c(-c2ccc(N(C)C)cc2)nc2c3ccccc3c3ccccc3c21.[Br-]	1	225	1	1	> 128	1	225	1	1	2	4	1	1	4
CCCCCNC(=O)C[N+](C)(C)CCCCn1c(-c2ccccc2)nc2c3ccccc3c3ccccc3c21.[Br-]	2		2	2	32	4		4	4	2	2	2	2	2
